Measured values: article PMC10374545, “A small molecule inhibitor of PTP1B and PTPN2 enhances T cell anti-tumor immunity” (Nature Communications, 2023)
Values joined by “and” are separate entries in the source; they are usually repeats but may differ in a detail not shown here. Identical values can stand only once.

Columns and labels:
PTP1B = biological target: T1, PTP1B (Homo sapiens, UniProt P18031); test: Mode of inhibition and Ki, Lineweaver-Burk kinetic analysis with DiFMUP; type: biochemical
T1 construct: PTP1B, residues 1-321; made in house; host or cells: E. coli BL21(DE3)
T1 sequence (P18031 1-321): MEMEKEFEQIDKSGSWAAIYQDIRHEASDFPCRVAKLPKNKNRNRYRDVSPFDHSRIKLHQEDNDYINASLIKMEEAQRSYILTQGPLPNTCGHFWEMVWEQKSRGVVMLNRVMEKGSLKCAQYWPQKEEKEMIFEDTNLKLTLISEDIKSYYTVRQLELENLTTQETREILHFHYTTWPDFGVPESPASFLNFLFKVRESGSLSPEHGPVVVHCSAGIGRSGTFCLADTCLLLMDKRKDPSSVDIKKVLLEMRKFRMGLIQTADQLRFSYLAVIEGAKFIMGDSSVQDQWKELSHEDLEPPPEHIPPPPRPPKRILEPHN
Protocol: To determine the mode of inhibition, the reactions were initiated by the addition of enzyme (final concentration for PTP1B and PTPN2 was 0.05 nM) to the reaction mixtures (0.2 ml) containing various concentrations of DiFMUP with different concentrations of the inhibitor. […] The fluorescence signal was measured using a CLARIOstar Plus Microplate Spectrophotometer (BMG Labtech) using excitation and emission wavelength of 340 nm and 450 nm, respectively. Data were fitted using Prism GraphPad 9.2.0. For selectivity studies, the inhibition assay for other PTPs were performed under the same conditions as used for PTP1B and PTPN2 except with different DiFMUP concentration corresponding to the Km of the PTP studied.

OT-I CD8+ T cells = test: T cell proliferation (CTV dilution); type: cell-based, mouse; design: CTV, single replicates / CTV, mean of differences (D - C): unit not given here; conditions: for CTV, single replicates: N4 0.5 nM, 1 μM, 3 days, Fig. 2C raw data
Protocol: For analyzing cellular proliferation in vitro, single-cell suspensions from lymph nodes of wild type (OT-I;Ptpn2^fl/fl) or PTPN2-deficient (OT-I;Lck-Cre;Ptpn2^fl/fl) mice were stained with 2 μM CellTrace^TM Violet (CTV; Molecular Probes, Thermo Fisher Scientific) in PBS supplemented with 0.1% (v/v) FBS for 20 min at 37 °C. […] On day 3, OT-I cells were harvested and CTV dilution was monitored by flow cytometry. For cell number quantification, known numbers of Flow-Count Fluorospheres (Beckman Coulter) were added to samples before analysis.

AT3 mammary tumors = test: Tumor-infiltrating lymphocytes in AT3 tumors; type: in vivo, mouse; design: CD4 EM, individual mice / CD8 EM, individual mice / GRZMB, individual mice / B cells, individual mice / NK cells, individual mice / Tregs, individual mice / MDSCs, individual mice: unit not given here
Protocol: Tumor-bearing mice were sacrificed and tumors were excised and digested at 37 °C for 30 min using a cocktail of 1 mg/ml collagenase type IV (Worthington Biochemicals) and 0.02 mg/ml DNase I (Sigma-Aldrich) in DMEM supplemented with 2% (v/v) FBS. Cells were passed through a 70 μm cell strainer (BD Biosciences) twice and processed for flow cytometry. For assessing T cell activation, cells were surface stained with fluorophore-conjugated antibodies to CD62L, CD44, PD-1, and TIM-3. For the assessment of NK cells, B cells, myeloid-derived suppressor cells (MDSCs), dendritic cells (DCs), and tumor-associated macrophages, cells were surface stained with fluorophore-conjugated antibodies to NK1.1, TCRβ, CD19, CD11b, CD11c, F4/80, Ly6C and Ly6G. For the detection of intracellular cytokines TNF and IFNγ, T cells were stimulated with PMA (20 ng/ml; Sigma-Aldrich) and ionomycin (1 μg/ml; Sigma-Aldrich) in the presence of GolgiPlug™ and GolgiStop™ (BD Biosciences) for 4 h at 37 °C in complete T cell medium. For the intracellular detection of granzyme B, cells were processed untreated without the addition of BD GolgiPlug™ and BD GolgiStop™.

[1] = Serum cytokines (BD Cytokine Bead Array) in AT3-OVA tumor-bearing mice; type: in vivo, mouse
Protocol: Single-cell suspensions from spleens and lymph nodes were obtained as described previously. For the detection of intracellular cytokines and granzyme B, T cells were fixed and permeabilized with the BD Cytofix/Cytoperm kit according to the manufacturer’s instructions. Briefly, T cells were first surface stained with fluorophore-conjugated antibodies and then fixed followed by permeabilization on ice for 20 min. Fixed and permeabilized cells were stained for IFN-γ, TNF, and granzyme B for 45 min at room temperature. For the detection of intracellular FoxP3 the Foxp3/Transcription Factor Staining Buffer Set (eBioscience) was used according to the manufacturer’s instructions. Briefly, cells were fixed and permeabilized for 1 h on ice followed by intracellular staining at room temperature for 45 min. For the detection of serum cytokines, the BD CBA Mouse Inflammation Kit™ was used according to the manufacturers’ instructions.

[2] = AT-3 tumours, Figure 4E, listed as CMP-182
[3] = AT-3 tumours, Figure 4F, listed as CMP-182
[4] = Figure 10A, serum, individual mice, listed as CMP-182, in pg/mL (unit assumed)

CC(C)(O)CCOc1ccc2cc(O)c(N3CC(=O)NS3(=O)=O)c(F)c2c1 [Compound 182, 5-(1-Fluoro-3-hydroxy-7-(3-hydroxy-3-methylbutoxy)naphthalen-2-yl)−1,2,5-thiadiazolidin-3-one 1,1-dioxide]
mode of inhibition (PTP1B): classic competitive inhibitor
OT-I CD8+ T cell proliferation/expansion (CTV dilution) (OT-I CD8+ T cells): marked increases
CTV, mean of differences (D - C) (OT-I CD8+ T cells; 2KI vs. 2K, day 3, 4 pairs, Fig. 2C): 23.93
CTV, single replicates (OT-I CD8+ T cells; Lck-Cre;Ptpn2fl/fl (2K) OT-I cells, listed as 2KI): 82.8 and 89.7 and 89.6 and 74.7
CTV, mean of differences (B - A) (OT-I CD8+ T cells; WTI vs. WT, day 3, 4 pairs, Fig. 2C): 27.74
CTV, single replicates (OT-I CD8+ T cells; wild type OT-I cells, listed as WTI): 38.7 and 58 and 84.3 and 62.7
TILs in AT3 tumors (AT3 mammary tumors; 10 mg/kg i.v.): increased TILs
CD4 EM, individual mice (AT3 mammary tumors; [2]): 3726.1 and 1503.32 and 2365.26 and 3607.46 and 1559.09
CD8 EM, individual mice (AT3 mammary tumors; [2]): 36747.8 and 11580.8 and 23763.5 and 22145.6 and 15367.2
GRZMB, individual mice (AT3 mammary tumors; [2]): 38 and 29.8 and 32 and 36.3 and 27.7
PD-1 TIM-3, individual mice (AT3 mammary tumors; [2]): 17.7 and 30.7 and 29.6 and 26.7 and 38
B cells, individual mice (AT3 mammary tumors; [3]): 10773 and 2554.29 and 3750.15 and 13582.9 and 3202.26
MDSCs, individual mice (AT3 mammary tumors; [3]): 17269.7 and 11457.4 and 14297.5 and 10691.6 and 5468.87
NK cells, individual mice (AT3 mammary tumors; [3]): 10197.4 and 4505.05 and 4177.56 and 6667.39 and 3703.02
Tregs, individual mice (AT3 mammary tumors; [3]): 857.48 and 533.579 and 888.636 and 1675.89 and 531.261
serum levels of pro-inflammatory cytokines IL-6, IFNγ and TNF ([1]; 10 mg/kg i.v.): not significantly increased
Serum IFNg 2nd cohort, median ([1]; Figure 10A, median, n=8): 10.56, n=8
Serum IL-6 2nd cohort, median ([1]; Figure 10A, median, n=8): 8.881, n=8
Serum TNF 2nd cohort, median ([1]; Figure 10A, median, n=8): 15.88, n=8
IFN g [1, 4]: 8.688 and 8.172 and 5.3329 and 65.9781 and 16.5587 and 24.0426 and 12.4297 and 4.946
IL-6 [1, 4]: 14.2361 and 23.6555 and 10.1071 and 7.655 and 5.591 and 5.72 and 7.01 and 68.8168
TNF [1, 4]: 7.107 and 11.4953 and 23.094 and 50.0533 and 23.4075 and 14.0031 and 17.7649 and 12.4357
